Where two headings read alike, the source gives them in different places. *1 amine or outer side, *2 acyl side, *3 side chain or, on linkers, in order; H or OH if unused. Where a SMILES comes first, the peptide text is derived from it. Bridges are numbered along the chain shown (N, C = ends). X1 = CN(CC(=O)O)c1nc(CC[*:1])cc(CC[*:2])n1; mXylylene = c1cc(C[*:1])cc(C[*:2])c1; CH2COCH2 = O=C(C[*:1])C[*:2]; CH2 = C([*:1])[*:2]
How the values were obtained:
[1] = biological target: T1, human Keap1 Kelch domain (A321-T609) (Homo sapiens, UniProt Q14145); test: Surface plasmon resonance (SPR) direct binding assay, immobilised Keap1 Kelch domain
T1 construct: human Keap1 Kelch domain (A321-T609) fused with N-terminal 6x His-tag; 6xHis (N); made in house
T1 sequence (Q14145 321-609): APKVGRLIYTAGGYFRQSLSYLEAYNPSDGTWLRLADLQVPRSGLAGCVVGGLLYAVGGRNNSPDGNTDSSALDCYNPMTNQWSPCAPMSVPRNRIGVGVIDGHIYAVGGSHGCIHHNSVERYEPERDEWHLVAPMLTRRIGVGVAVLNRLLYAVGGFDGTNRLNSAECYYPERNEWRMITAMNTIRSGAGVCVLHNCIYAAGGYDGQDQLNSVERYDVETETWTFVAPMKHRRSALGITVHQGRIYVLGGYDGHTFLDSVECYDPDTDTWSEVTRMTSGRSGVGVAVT
Description: (§1) We based the design of our Nrf2-like cyclic peptides around the amino acid sequence of the ETGE motif (namely 12-mer ^73[…]^84L) and SAR studies reported in the literature.[9,10,12,14] The […] motif is known to adopt a beta-turn conformation upon binding to Keap1. Residues Q73-Q75 and L85 stabilise the bound conformation, L76-D77 and E79-G81 bind deep into the pocket with E79 and E82 forming electrostatic interactions with Keap1 and D77 and T80 stabilising the beta-turn via H-bonds with E78 not contributing to the binding. […] The ability of the cyclic peptides to bind to the Kelch domain of Keap1 was evaluated using surface plasma resonance (SPR), where the Kelch domain is immobilised onto a SPR sensor chip. Additionally, we assessed the ability of the peptides to inhibit the PPI between Nrf2 and the Kelch domain of Keap1 using a time-resolved FRET (TR-FRET) assay. Here, the IC50 for inhibition of the interaction between the human Keap1 Kelch domain and an Nrf2-ETGE peptide is measured.
(§2) Surface Plasmon Resonance (SPR)
(§3) Peptide affinities to the Kelch domain of Keap1 is determined in a direct binding assay using 8K surface plasmon resonance (SPR) biosensor (Cytiva) at 20°C. Immobilization of Keap1 Kelch domain on a CM5 sensor chip (Cytiva) is performed using standard amine coupling procedure. The surface is washed with 10mM NaOH, 1M NaCl before activated with EDC/NHS (Cytiva), followed by immobilization of human Keap1 Kelch domain (A321-T609) fused with N-terminal 6x His-tag7 (in 10 mM MES, pH=6.4).
(§4) Finally, the surface is deactivated by Ethanolamine. Immobilization levels are typically 5000-6000 RU.
(§5) The reference spot is treated as described, omitting the injection of Keap1. Compound concentration series are injected over the immobilized protein in increasing concentrations using single cycle kinetics (SCK) in running buffer (10 mM HEPES, 150 mM NaCl, 0.05% Tween20, 1 mM TCEP, pH 7.4). A 1:1 Langmuir interaction model is fitted to the experimental traces, enabling determination of kon, koff and […]
(§6) In the time-resolved Förster resonance energy transfer (TR-FRET) assay8 the IC50 of inhibitors which […]
(§7) are determined. The TR-FRET is measured between a Tb-labelled mAb (Anti—6-His, Tb cryptate Gold, CisBio 61H12TLB) that binds to Keap 1 Kelch domain and d2-labelled SA-biotin-peptide.
(§8) The assay was performed in 384-well white low-volume, medium binding plates (Greiner Bio One, Austria) in 20 mM HEPES pH 7.5, 150 mM NaCl, 2 mM GSH (Sigma-Aldrich, USA),1mM EDTA (Sigma-Aldrich, USA), and 0.01% Pluronic F127 (MilliporeSigma, USA), with a final reaction volume of 10 µL.
(§9) To determine the ability of synthesized peptide to inhibit PPI between the Keap1 Kelch domain and Nrf2, 1nM purified human Keap1 Kelch domain (A321-T609) fused with N-terminal 6x His-tag, 5 nM biotinylated Nrf2 peptide ([…], Genescript, USA), d2-labeled streptavidin (Revvity, USA), and […] anti-His monoclonal antibody tagged with terbium cryptate (Revvity, USA), were incubated in the presence of varying concentrations of investigated peptides for 3 h at room […]
(§10) 7 Li X, Zhang D, Hannink M, Beamer LJ. Crystallization and initial crystallographic analysis of the Kelch domain from human Keap1. Acta
(§11) 8 S. Lee, D. Ali Abed, L. J. Beamer, L. Hu, Development of a Homogeneous Time-Resolved Fluorescence Resonance Energy Transfer (TR-

[2] = biological target: T2, interaction between the human Keap1 Kelch domain and an Nrf2-ETGE peptide (Homo sapiens, UniProt Q14145); test: Keap1-Nrf2 TR-FRET (HTRF) assay; format: binding
T2 construct: 1nM purified human Keap1 Kelch domain (A321-T609) fused with N-terminal 6x His-tag; made in house
T2 sequence (Q14145 321-609): as above
Description: as §1, §2, §3, §4, §5, §6, §7, §8, §9, §10, §11
Following the incubation, the PHERAstar FSX […] microplate reader was used to measure the acceptor and donor emissions at 665 nm and 620 nm, respectively. The acceptor/donor ratio was used to calculate relative energy transfer. Data was normalized by two-point normalization using neutral and inhibitor controls (neutral control: DMSO, inhibitor control: 0.1nM 2-[[4-[carboxymethyl-(4-methoxyphenyl)sulfonylamino]naphthale n-1-yl]-(4-methoxyphenyl)sulfonylamino]acetic acid; […]
parameter logistic fit and IC50 values were calculated using Genedata screener software (Genedata, […]

[3] = Table 1, geometric mean ± sd of at least 3 independent repeats unless stated, 20°C
[4] = Table 1, single cycle kinetics, 1:1 Langmuir model
[5] = Table 1, geometric mean ± sd of at least 3 independent repeats unless stated, read-out: TR-FRET IC50

Row | Compound | Kd [1, 3] [nM] | koff [1, 4] [s⁻¹] | kon [1, 4] [M⁻¹ s⁻¹] | IC50 [2, 5] [nM] | koff ([1]; Table 2) [s⁻¹] | kon ([1]; Table 2) [M⁻¹ s⁻¹] | Kd ([1]; Table 2, geometric mean ± sd of at least two independent repeats) [nM] | IC50 ([2]; Table 2, IC50, minimum of three repeats, read-out: TR-FRET) [nM]
1 | CC(=O)N[C@H]1CSCCc2cc(nc(N(C)CC(=O)O)n2)CCSC[C@@H](C(=O)N[C@@H](CC(C)C)C(N)=O)NC(=O)[C@H](CCC(=O)O)NC(=O)CNC(=O)[C@H]([C@@H](C)O)NC(=O)[C@H](CCC(=O)O)NC(=O)[C@@H]2CCCN2C(=O)[C@H](CC(=O)O)NC(=O)[C@H](CC(C)C)NC(=O)[C@H](CCC(N)=O)NC1=O [Peptide P1-D] (Ac-CQLDPETGECL-NH2; linker 1-10 via X1) | 25 ± 1.3 | 0.0047 | 200000 | 2.9 ± 1.4 | – | – | – | –
2 | CC(=O)N[C@@H](CS)C(=O)N[C@@H](CC(C)C)C(=O)N[C@@H](CCC(N)=O)C(=O)N[C@@H](CC(C)C)C(=O)N[C@@H](CC(=O)O)C(=O)N1CCC[C@H]1C(=O)N[C@@H](CCC(=O)O)C(=O)N[C@H](C(=O)NCC(=O)N[C@@H](CCC(=O)O)C(=O)N[C@@H](CS)C(=O)N[C@@H](CC(C)C)C(N)=O)[C@@H](C)O [Peptide P3] (Ac-CLQLDPETGECL-NH2) | 19 ± 1.8 | 0.0049 | 180000 | 5 ± 1.5 | – | – | – | –
3 | CC(=O)N[C@H]1CSCc2cccc(c2)CSC[C@@H](C(=O)N[C@@H](CC(C)C)C(N)=O)NC(=O)[C@H](CCC(=O)O)NC(=O)CNC(=O)[C@H]([C@@H](C)O)NC(=O)[C@H](CCC(=O)O)NC(=O)[C@@H]2CCCN2C(=O)[C@H](CC(=O)O)NC(=O)[C@H](CC(C)C)NC(=O)[C@H](CCC(N)=O)NC1=O [Peptide P1-C] (Ac-CQLDPETGECL-NH2; linker 1-10 via mXylylene) | 17 ± 1.2 | 0.0078 | 470000 | 2.1 | – | – | – | –
4 | CC(=O)N[C@H]1CSCC(=O)CSC[C@@H](C(=O)N[C@@H](CC(C)C)C(N)=O)NC(=O)[C@H](CCC(=O)O)NC(=O)CNC(=O)[C@H]([C@@H](C)O)NC(=O)[C@H](CCC(=O)O)NC(=O)[C@@H]2CCCN2C(=O)[C@H](CC(=O)O)NC(=O)[C@H](CC(C)C)NC(=O)[C@H](CCC(N)=O)NC1=O [Peptide P1-B] (Ac-CQLDPETGECL-NH2; linker 1-10 via CH2COCH2) | 27 ± 1.3 | 0.0087 | 410000 | 4.4 ± 1.4 | – | – | – | –
5 | CC(=O)N[C@@H](CC(C)C)C(=O)N[C@@H](CCC(N)=O)C(=O)N[C@H]1CSCC(=O)CSC[C@@H](C(=O)N[C@@H](CC(C)C)C(N)=O)NC(=O)[C@H](CCC(=O)O)NC(=O)CNC(=O)[C@H]([C@@H](C)O)NC(=O)[C@H](CCC(=O)O)NC(=O)[C@@H]2CCCN2C(=O)[C@H](CC(=O)O)NC1=O [Peptide P2-B] (Ac-LQCDPETGECL-NH2; linker 3-10 via CH2COCH2) | 97 ± 1.4 | 0.028 | 350000 | 9.8 ± 1.2 | – | – | – | –
6 | CC(=O)N[C@@H](CS)C(=O)N[C@@H](CC(=O)O)C(=O)N1CCC[C@H]1C(=O)N[C@@H](CCC(=O)O)C(=O)N[C@H](C(=O)NCC(=O)N[C@@H](CCC(=O)O)C(=O)N[C@@H](CS)C(=O)N[C@@H](CC(C)C)C(N)=O)[C@@H](C)O [Peptide P8] | – | – | – | – | 0.0055 | 95000 | 56 ± 1.3 | 4.9 ± 1.2
7 | CC(=O)N[C@@H](CC(C)C)C(=O)N[C@@H](CCC(N)=O)C(=O)N[C@@H](CS)C(=O)N[C@@H](CC(=O)O)C(=O)N1CCC[C@H]1C(=O)N[C@@H](CCC(=O)O)C(=O)N[C@H](C(=O)NCC(=O)N[C@@H](CCC(=O)O)C(=O)N[C@@H](CS)C(=O)N[C@@H](CC(C)C)C(N)=O)[C@@H](C)O [Peptide P2] (Ac-LQCDPETGECL-NH2) | 75 | – | – | – | – | – | – | –
8 | CC(=O)N[C@H]1CSCCc2cc(nc(N(C)CC(=O)O)n2)CCSC[C@@H](C(=O)N[C@@H](CC(C)C)C(N)=O)NC(=O)[C@H](CCC(=O)O)NC(=O)CNC(=O)[C@H]([C@@H](C)O)NC(=O)[C@H](CCC(=O)O)NC(=O)[C@@H]2CCCN2C(=O)[C@H](CC(=O)O)NC(=O)[C@H](CC(C)C)NC(=O)[C@H](CCC(N)=O)NC(=O)[C@H](CC(C)C)NC1=O [Peptide P3-D] (Ac-CLQLDPETGECL-NH2; linker 1-11 via X1) | 22 ± 1.3 | 0.0028 | 140000 | 2.4 ± 1.3 | – | – | – | –
9 | CC(=O)N[C@@H](CC(C)C)C(=O)N[C@@H](CCC(N)=O)C(=O)N[C@H]1CSCc2cccc(c2)CSC[C@@H](C(=O)N[C@@H](CC(C)C)C(N)=O)NC(=O)[C@H](CCC(=O)O)NC(=O)CNC(=O)[C@H]([C@@H](C)O)NC(=O)[C@H](CCC(=O)O)NC(=O)[C@@H]2CCCN2C(=O)[C@H](CC(=O)O)NC1=O [Peptide P2-C] (Ac-LQCDPETGECL-NH2; linker 3-10 via mXylylene) | 36 ± 1.8 | 0.013 | 500000 | 5.6 ± 1.1 | – | – | – | –
10 | CC(=O)N[C@@H](CC(C)C)C(=O)N[C@@H](CCC(N)=O)C(=O)N[C@H]1CSCSC[C@@H](C(=O)N[C@@H](CC(C)C)C(N)=O)NC(=O)[C@H](CCC(=O)O)NC(=O)CNC(=O)[C@H]([C@@H](C)O)NC(=O)[C@H](CCC(=O)O)NC(=O)[C@@H]2CCCN2C(=O)[C@H](CC(=O)O)NC1=O [Peptide P2-A] (Ac-LQCDPETGECL-NH2; linker 3-10 via CH2) | 70 ± 1 | 0.015 | 210000 | 8.3 ± 1.1 | – | – | – | –
11 | CC(=O)N[C@@H](CS)C(=O)N[C@@H](CCC(N)=O)C(=O)N[C@@H](CC(C)C)C(=O)N[C@@H](CC(=O)O)C(=O)N1CCC[C@H]1C(=O)N[C@@H](CCC(=O)O)C(=O)N[C@H](C(=O)NCC(=O)N[C@@H](CCC(=O)O)C(=O)N[C@@H](CS)C(=O)N[C@@H](CC(C)C)C(N)=O)[C@@H](C)O [Peptide P1] (Ac-CQLDPETGECL-NH2) | 20 ± 1.2 | 0.0014 | 86000 | 4.9 ± 1.1 | – | – | – | –
12 | CC(=O)N[C@@H](CC(C)C)C(=O)N[C@@H](CCC(N)=O)C(=O)N[C@H]1CSCCc2cc(nc(N(C)CC(=O)O)n2)CCSC[C@@H](C(=O)N[C@@H](CC(C)C)C(N)=O)NC(=O)[C@H](CCC(=O)O)NC(=O)CNC(=O)[C@H]([C@@H](C)O)NC(=O)[C@H](CCC(=O)O)NC(=O)[C@@H]2CCCN2C(=O)[C@H](CC(=O)O)NC1=O [Peptide P2-D] (Ac-LQCDPETGECL-NH2; linker 3-10 via X1) | 54 ± 1.2 | 0.0083 | 160000 | 4.8 ± 1.5 | – | – | – | –
13 | CC(=O)N[C@H]1CSCSC[C@@H](C(=O)N[C@@H](CC(C)C)C(N)=O)NC(=O)[C@H](CCC(=O)O)NC(=O)CNC(=O)[C@H]([C@@H](C)O)NC(=O)[C@H](CCC(=O)O)NC(=O)[C@@H]2CCCN2C(=O)[C@H](CC(=O)O)NC(=O)[C@H](CC(C)C)NC(=O)[C@H](CCC(N)=O)NC1=O [Peptide P1-A] (Ac-CQLDPETGECL-NH2; linker 1-10 via CH2) | 19 ± 1.4 | 0.0073 | 480000 | 2.9 ± 1.7 | – | – | – | –
14 | CC(=O)N[C@H]1Cn2cc(nn2)-c2cc(C(=O)O)cc(c2)-c2cn(nn2)C[C@@H](C(=O)N[C@@H](CC(C)C)C(N)=O)NC(=O)[C@H](CCC(=O)O)NC(=O)CNC(=O)[C@H]([C@@H](C)O)NC(=O)[C@H](CCC(=O)O)NC(=O)[C@@H]2CCCN2C(=O)[C@H](CC(=O)O)NC(=O)[C@H](CC(C)C)NC(=O)[C@H](CCC(N)=O)NC(=O)[C@H](CC(C)C)NC1=O [Peptide P3Aza-E] | 34 ± 1.3 | 0.0054 | 170000 | 4 ± 1.4 | – | – | – | –
